{
  "source": "ChEMBL document CHEMBL6177948",
  "about": "“Discovery of potential Leonurine-based therapeutic lead MJ210 attenuates Parkinson's disease pathogenesis via NF-κB and MAPK pathways: Mechanistic insights from in vitro and in vivo rotenone models” (Eur J Med Chem, 2025)",
  "key": {"[1]": {"test_system": "SH-SY5Y", "assay": "Neuroprotective activity against rotenone-induced ROS formation in human SH-SY5Y cells assessed as decrease in ROS level at 5 uM preincubated with compound for 24 hrs followed by rotenone addition by H2DCFDA staining based fluorescence microscopic analysis", "assay_type": "functional, cell-based"}, "[2]": {"test_system": "SH-SY5Y", "assay": "Reversal of rotenone-induced mitochondrial membrane depolarization in human SH-SY5Y cells assessed as increase in aggregates to monomer ratio at 5 uM preincubated with compound for 24 hrs followed by rotenone addition and measured after 24 hrs by JC-10 based fluorescence microscopic analysis", "assay_type": "functional, cell-based", "settings": "time 48.0 hrs"}, "[3]": {"test_system": "Rattus norvegicus", "assay": "(§1) In vivo inhibition of MAPK signaling pathway in rotenone-induced parkinson disease male Wistar rat model assessed as reduction in P-38 phosphorylation level in substantia nigra at 5 mg/kg, ip pretreated with compound every alternative days followed by rotenone addition and measured after 42 days by Western blotting analysis", "assay_type": "functional, organism-based", "settings": "time 42.0 day"}, "[4]": {"assay": "Toxicity in male Wistar rat assessed as change in cellular structure of liver at 1 to 10 mg/kg by H and E staining based analysis", "assay_type": "organism-based", "settings": "in vivo, dose 1-10 mg/kg"}, "[5]": {"test_system": "Rattus norvegicus", "assay": "Improvement in rotenone-induced depression-like behavior in male Wistar rat model assessed as improvement in sucrose intake at 5 mg/kg, ip pretreated with compound every alternative days followed by rotenone addition and measured after 42 days by sucrose preference test", "assay_type": "functional, organism-based", "settings": "time 42.0 day"}, "[6]": {"test_system": "Rattus norvegicus", "assay": "Anti-inflammatory activity in rotenone-induced male Wistar rat model assessed as reduction in PGE2 expression level in substantia nigra at 5 mg/kg, ip pretreated with compound every alternative days followed by rotenone addition and measured after 42 days by ELISA", "assay_type": "functional, organism-based", "settings": "time 42.0 day"}, "[7]": {"test_system": "Rattus norvegicus", "assay": "as §1, with “striatum” for “substantia nigra”", "assay_type": "functional, organism-based", "settings": "time 42.0 day"}, "[8]": {"test_system": "Rattus norvegicus", "assay": "Anti-inflammatory activity in rotenone-induced male Wistar rat model assessed as reduction in phosphorylated NF-kappaB P65 protein expression level in striatum at 5 mg/kg, ip pretreated with compound every alternative days followed by rotenone addition and measured after 42 days by ELISA", "assay_type": "functional, organism-based", "settings": "time 42.0 day"}, "[9]": {"test_system": "Rattus norvegicus", "assay": "Anti-parkinson activity in rotenone-induced male Wistar rat model assessed as improvement in t-turn metrics at 5 mg/kg, ip pretreated with compound every alternative days followed by rotenone addition and measured after 42 days by pole test", "assay_type": "functional, organism-based", "settings": "time 42.0 day"}, "[10]": {"test_system": "Rattus norvegicus", "assay": "Anti-parkinson activity in rotenone-induced neurodegeneration in male Wistar rat model assessed as reduced edema in substantia nigra at 5 mg/kg, ip pretreated with compound every alternative days followed by rotenone addition and measured after 42 days by H and E staining based analysis", "assay_type": "functional, organism-based", "settings": "time 42.0 day"}, "[11]": {"test_system": "Rattus norvegicus", "assay": "Anti-parkinson activity in rotenone-induced neurodegeneration in male Wistar rat model assessed as reduction in pyknotic neurons in striatum at 5 mg/kg, ip pretreated with compound every alternative days followed by rotenone addition and measured after 42 days by Nissl staining based analysis", "assay_type": "functional, organism-based", "settings": "time 42.0 day"}, "[12]": {"test_system": "Rattus norvegicus", "assay": "as §1, with “JNK” for “P-38”", "assay_type": "functional, organism-based", "settings": "time 42.0 day"}, "[13]": {"assay": "Toxicity in male Wistar rat assessed as change in liver morphology at 1 to 10 mg/kg by H and E staining based analysis", "assay_type": "organism-based", "settings": "in vivo, dose 1-10 mg/kg"}, "[14]": {"test_system": "Rattus norvegicus", "assay": "Anti-parkinson activity in rotenone-induced male Wistar rat model assessed as increase in TH expression in substantia nigra at 5 to 10 mg/kg, ip pretreated with compound every alternative days followed by rotenone addition and measured after 42 days by Western blotting analysis", "assay_type": "functional, organism-based", "settings": "dose 5-10 mg/kg, time 42.0 day"}, "[15]": {"test_system": "Rattus norvegicus", "assay": "Anti-parkinson activity in rotenone-induced neurodegeneration in male Wistar rat model assessed as minimal neuronal loss in cortex at 5 mg/kg, ip pretreated with compound every alternative days followed by rotenone addition and measured after 42 days by H and E staining based analysis", "assay_type": "functional, organism-based", "settings": "time 42.0 day"}, "[16]": {"test_system": "SH-SY5Y", "assay": "Anti-apoptotic activity in rotenone-induced human SH-SY5Y cells assessed as reduction in Bax expression by Western blotting analysis", "assay_type": "functional, cell-based"}, "[17]": {"test_system": "Rattus norvegicus", "assay": "Anti-parkinson activity in rotenone-induced neurodegeneration in male Wistar rat model assessed as decrease neuronal damage in substantia nigra at 5 mg/kg, ip pretreated with compound every alternative days followed by rotenone addition and measured after 42 days by Nissl staining based analysis", "assay_type": "functional, organism-based", "settings": "time 42.0 day"}, "[18]": {"assay": "Toxicity in male Wistar rat assessed as change in cellular structure of kidney at 1 to 10 mg/kg by H and E staining based analysis", "assay_type": "organism-based", "settings": "in vivo, dose 1-10 mg/kg"}, "[19]": {"test_system": "SH-SY5Y", "assay": "Neuroprotective activity against rotenone-induced mitochondrial ROS generation in human SH-SY5Y cells assessed as decrease in ROS level at 5 uM preincubated with compound for 24 hrs followed by rotenone addition and measured after 24 hrs by Mito Tracker staining based fluorescence microscopic analysis", "assay_type": "functional, cell-based", "settings": "time 48.0 hrs"}, "[20]": {"test_system": "SH-SY5Y", "assay": "Neuroprotective activity against rotenone-induced cytotoxicity in human SH-SY5Y cells assessed as increase in green fluorescence at 5 uM by Calcein-AM and PI staining based fluorescence microscopy analysis", "assay_type": "functional, cell-based"}, "[21]": {"test_system": "Rattus norvegicus", "assay": "Anti-parkinson activity in rotenone-induced male Wistar rat assessed as increase in TH positive fiber density in […] at 5 mg/kg, ip pretreated with compound every alternative days followed by rotenone addition and measured after 42 days by immunofluorescence staining based analysis", "assay_type": "functional, organism-based", "settings": "time 42.0 day"}},
  "note": "Activity calls are given as the source filed them. No cut-off for these calls is given here.",
  "data": [
    {"smiles": "COc1cc(CCC(=O)N2CCCCC2)cc(OC)c1OC(=O)c1ccccn1", "values": [
      {"measurement": "Activity", "setting": "[1]", "value": "Active"},
      {"measurement": "Activity", "setting": "[2]", "value": "Active"},
      {"measurement": "inhibition", "setting": "[3]", "value": "Active"},
      {"measurement": "Activity", "setting": "[4]", "value": "Non-toxic"},
      {"measurement": "Activity", "setting": "[5]", "value": "Active"},
      {"measurement": "Activity", "setting": "[6]", "value": "Active"},
      {"measurement": "inhibition", "setting": "[7]", "value": "Active"},
      {"measurement": "Activity", "setting": "[8]", "value": "Active"},
      {"measurement": "Activity", "setting": "[9]", "value": "Active"},
      {"measurement": "Activity", "setting": "[10]", "value": "Active"},
      {"measurement": "Activity", "setting": "[11]", "value": "Active"},
      {"measurement": "inhibition", "setting": "[12]", "value": "Active"},
      {"measurement": "Activity", "setting": "[13]", "value": "Non-toxic"},
      {"measurement": "Activity", "setting": "[14]", "value": "Active"},
      {"measurement": "Activity", "setting": "[15]", "value": "Active"},
      {"measurement": "Activity", "setting": "[16]", "value": "Active"},
      {"measurement": "Activity", "setting": "[17]", "value": "Active"},
      {"measurement": "Activity", "setting": "[18]", "value": "Non-toxic"},
      {"measurement": "Activity", "setting": "[19]", "value": "Active"},
      {"measurement": "Activity", "setting": "[20]", "value": "Active"},
      {"measurement": "Activity", "setting": "[21]", "value": "Active"}
    ]}
  ]
}
